These results are taken from US7569724B2, “Carbamic acid compounds comprising an amide linkage as HDAC inhibitors” (Topotarget UK Limited, priority 2000, dated 2009).

pIC50: −log10 of the molar value. Like-named read-outs stand apart in the source and are kept apart here.

The subject of one data set is JURKAT human T-cell line. The data set is described as follows: Secondary assay: cell proliferation WST-1, Jurkat. The class given is cell-based. Particulars: 48 h, read-out: Cell Proliferation Inhibition WST-1 (IC50 unless otherwise specified) Jurkat. In general terms: Formazan colour is commonly taken as a measure of viable cells.
Data set [1] has as its system NHEK-Ad primary human adult keratinocyte line. The data set is described as follows: Secondary assay: cell proliferation WST-1, NHEK-Ad. Type of data set: cell-based. The note with it: 48 h, read-out: Cell Proliferation Inhibition WST-1 (IC50 unless otherwise specified) NHEK-AD. As for the experimental part:
Compounds with HDAC inhibition activity, as determined using the primary assay, were subsequently evaluated using secondary cell-based assays. The following cell lines were used:
NHEK-Ad—Primary human adult keratinocyte line (Cambrex Corp., East Rutherford, N.J., USA).
Cells were plated in 96-well plates at 3-10×10^3 cells/well in 100 μL of culture medium. The following day, different concentrations of candidate compounds were added and the cells incubated at 37° C. for 48 h. Subsequently, 10 μL/well of WST-1 reagent was added and the cells reincubated for 1 hour. After the incubation time, absorbance was measured.
WST-1 is a tetrazolium salt which is cleaved to formazan dye by cellular enzymes. An expansion in the number of viable cells results in an increase in the overall activity of mitochondrial dehydrogenases in the sample. This augmentation in the enzyme activity leads to an increase in the amount of formazan dye formed, which directly correlates to the number of metabolically active cells in the culture. The formazan dye produced is quantified by a scanning multiwell spectrophotometer by measuring the absorbance of the dye solution at 450 nm wavelength (reference wavelength 690 nm).
Percent activity (% activity) in reducing the number of viable cells was calculated for each test compound as: % activity={(S^C−B)/(S^o−B)}×100 wherein S^C denotes signal measured in the presence of the compound being tested, S^o denotes signal measured in the absence of the compound being tested, and B denotes the background signal measured in blank wells containing medium only.
IC50 values were calculated using the software package Prism 3.0 (GraphPad software Inc., San Diego, Calif.), setting top value at 100 and bottom value at 0.

Data set [2] has as its system K11 HPV E7 transformed human keratinocyte line. The data set is described as follows: Secondary assay: cell proliferation WST-1, K11. The class given is cell-based. The note with it: read-out: Cell Proliferation Inhibition WST-1 (IC50 unless otherwise specified) K11.
Another data set deals with HeLa cells. Nature of the data set: Secondary assay: cell proliferation WST-1, HeLa. The class given is cell-based. Particulars: Homo sapiens, 48 h, read-out: Cell Proliferation Inhibition WST-1 (IC50 unless otherwise specified) HeLa. The essentials:
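Absorbance at 450 nm (reference 690 nm); % activity vs untreated after blank subtraction, IC50 fitted with top 100 and bottom 0.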

A further data set has as its system HDAC (HeLa cell extract). The data set is described as follows: Primary assay: deacetylase activity, HeLa cell extract as source of HDAC. Type of data set: biochemical, human. The essentials:
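Crude HeLa extract (freeze-thaw in 60 mM TrisCl pH 8.0, 450 mM NaCl, 30% glycerol) was incubated 1 h at 37° C with a [³H]acetyl-labelled histone H4 N-terminal peptide in 20 mM Tris pH 7.4, 10% glycerol.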

A further data set addresses T1, human HDAC1 (Homo sapiens, UniProt Q13547).
T1 construct: Full length human HDAC1 was cloned by PCR; Flag (C); His6 (from pAcHLT vector; purified on Ni-NTA) (N); made in house; host or cells: SF9 insect cells (baculovirus)
The data set is described as follows: Primary assay: deacetylase activity, recombinantly produced HDAC1. Type of data set: biochemical. The note with it: recombinant HDAC1; read-out: HDAC Inhibition (IC50 unless otherwise specified) HDAC1. From the text: (§1) Briefly, this assay relies on the release of radioactive acetate from a radioactively labelled histone fragment by the action of HDAC enzyme. Test compounds, which inhibit HDAC, reduce the yield of radioactive acetate. Signal (e.g., scintillation counts) measured in the presence and absence of a test compound provide an indication of that compound's ability to inhibit HDAC activity. Decreased activity indicates increased inhibition by the test compound.
(§2) The histone fragment was an N-terminal sequence from histone H4, and it was labelled with radioactively labelled acetyl groups using tritiated acetylcoenzyme A (coA) in conjunction with an enzyme which is the histone acetyltransferase domain of the transcriptional coactivator p300. […] The acetylated peptide was then separated from free acetyl coA by size exclusion chromatography on Sephadex G-15 (Sigma G-15-120), using distilled H2O as the mobile phase.
(§3) After purification of the radiolabelled histone fragment, it was incubated with a source of HDAC (e.g., an extract of HeLa cells (a rich source of HDAC), recombinantly produced HDAC1 or HDAC2) and any released acetate was extracted into an organic phase and quantitatively determined using scintillation counting. By including a test compound with the source of HDAC, that compound's ability to inhibit the HDAC was determined.
Full length human HDAC1 was cloned by PCR using a λgt11 Jurkat cDNA library (Clontech-HL5012b). The amplified fragment was inserted into the EcoRI-Sall sites of pFlag-CTC vector (Sigma-E5394), in frame with the Flag tag. A second PCR was carried out in order to amplify a fragment containing the HDAC1 sequence fused to the Flag tag.
(§4) Amplification of recombinant viruses was performed according to the Pharmingen Instruction Manual.
(§5) For protein production, 2×10^7 cells were infected with the appropriate recombinant virus for 3 days. Cells were then harvested and spun at 3,000 rpm for 5 minutes. They were then washed twice in PBS and resuspended in 2 pellet volumes of lysis buffer (25 mM HEPES pH 7.9, 0.1 mM EDTA, 400 mM KCl, 10% glycerol, 0.1% NP-40, 1 mM AEBSF). Resuspended cells were frozen on dry ice and thawed at 37° C. 3 times and centrifuged for 10 minutes at 14,000 rpm. […] Incubation was carried out at 4° C. for 1 hour on a rotating wheel. The slurry was then centrifuged at 500 g for 5 minutes. Beads were washed twice in 1 ml of wash buffer (25 mM HEPES pH7.9, 0.1 mM EDTA, 150 mM KCl, 10% glycerol, 0.1% NP-40, 1 mM AEBSF). Protein was eluted 3 times in 300 μl elution buffer (25 mM HEPES pH 7.9, 0.1 mM EDTA, 250 mM KCl, 10% glycerol, 0.1% NP-40, 1 mM AEBSF) containing increasing concentrations of imidazole: 0.2 M, 0.5 M and 1 M. Each elution was performed for 5 minutes at room temperature. Eluted protein was kept in 50% glycerol at −70° C.
(§6) A source of HDAC (e.g., 2 μL of crude HeLa extract, 5 μL of HDAC1 or HDAC2; in elution buffer, as above) was incubated with 3 μL of radioactively labelled peptide along with appropriate dilutions of candidate compounds (1.5 μL) in a total volume of 150 μL of buffer (20 mM Tris pH 7.4, 10% glycerol). The reaction was carried out at 37° C. for one hour, after which the reaction was stopped by adding 20 μL of 1 M HCl/0.4 M sodium acetate. […] Radioactivity was measured using a Tri-Carb 2100TR Liquid Scintillation Analyzer (Packard).
(§7) Percent activity (% activity) for each test compound was calculated as: % activity={(S^C−B)/(S^o−B)}×100 wherein S^C denotes signal measured in the presence of enzyme and the compound being tested, S^o denotes signal measured in the presence of enzyme but in the absence of the compound being tested, and B denotes the background signal measured in the absence of both enzyme and compound being tested.

In another data set the target is T2, human HDAC2 (Homo sapiens, UniProt Q92769).
T2 construct: Full length human HDAC2 was subcloned; Flag (C); His6 (from pAcHLT-A vector; purified on Ni-NTA) (N); made in house; host or cells: SF9 insect cells (baculovirus)
The data set is described as follows: Primary assay: deacetylase activity, recombinantly produced HDAC2. Particulars: recombinant HDAC2; read-out: HDAC Inhibition (IC50 unless otherwise specified) HDAC2. Type of data set: biochemical.
Description: as §1, §2, §3, §4, §5, §6, §7

The mark [3] stands for this setting: Homo sapiens, Keratinocyte, 48 h.
[4] abbreviates: HeLa cell extract, read-out: HDAC Inhibition (IC50 unless otherwise specified) HeLa.
Setting [5] is: Homo sapiens, Keratinocyte, NHEK-AD.

T1 sequence (Q13547 whole entry): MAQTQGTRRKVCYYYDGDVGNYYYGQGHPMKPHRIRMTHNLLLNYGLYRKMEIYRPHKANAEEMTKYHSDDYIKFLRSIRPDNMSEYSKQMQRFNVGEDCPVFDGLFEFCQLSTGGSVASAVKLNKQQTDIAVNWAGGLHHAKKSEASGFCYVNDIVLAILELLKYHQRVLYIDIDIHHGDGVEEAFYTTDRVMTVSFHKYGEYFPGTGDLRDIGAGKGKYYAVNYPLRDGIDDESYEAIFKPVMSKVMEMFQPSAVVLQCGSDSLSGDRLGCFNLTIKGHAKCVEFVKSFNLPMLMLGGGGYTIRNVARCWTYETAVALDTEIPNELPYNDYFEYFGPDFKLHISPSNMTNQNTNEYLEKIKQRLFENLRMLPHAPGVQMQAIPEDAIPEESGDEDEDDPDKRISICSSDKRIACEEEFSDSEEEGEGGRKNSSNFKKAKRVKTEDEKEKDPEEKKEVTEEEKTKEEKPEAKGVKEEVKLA
T2 sequence (Q92769 whole entry): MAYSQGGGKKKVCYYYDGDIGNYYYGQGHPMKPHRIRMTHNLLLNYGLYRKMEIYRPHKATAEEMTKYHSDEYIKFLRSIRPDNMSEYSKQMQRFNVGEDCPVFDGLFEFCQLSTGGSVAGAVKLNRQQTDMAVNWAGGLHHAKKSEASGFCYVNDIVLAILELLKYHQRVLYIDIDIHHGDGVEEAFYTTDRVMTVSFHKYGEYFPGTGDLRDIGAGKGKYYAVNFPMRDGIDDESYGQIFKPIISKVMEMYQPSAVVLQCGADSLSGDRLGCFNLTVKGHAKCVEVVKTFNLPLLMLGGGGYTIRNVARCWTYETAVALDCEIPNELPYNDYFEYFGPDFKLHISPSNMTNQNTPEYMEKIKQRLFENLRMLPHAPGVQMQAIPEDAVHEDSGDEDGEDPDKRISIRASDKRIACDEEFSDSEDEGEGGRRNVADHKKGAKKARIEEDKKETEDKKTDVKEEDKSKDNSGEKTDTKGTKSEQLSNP

Take `Nc1ccccc1NC(=O)c1ccc(CNC(=O)OCc2cccnc2)cc1` [MS-275, reference compound]: the pIC50 in the data set with JURKAT human T-cell line is 6.44; in data set [1] (NHEK-AD), 5.51; in data set [2] (K11, 48 h), 5.04.

`O=C(/C=C/C#Cc1cccc(NS(=O)(=O)c2ccccc2)c1)NO` [Oxamflatin, (2E)-5-[3-[(phenylsulfonyl)amino]phenyl]-pent-2-en-4-ynohydroxamic acid, reference compound]: the pIC50 with JURKAT human T-cell line (Homo sapiens) was 6.59; in data set [1] (Homo sapiens, Keratinocyte) it was 5.45; in data set [2] (setting [3]), 5.34; in the data set with HeLa cells it was 5.96.

One may read the melting point as the temperature of the solid-liquid transition. For `O=C(/C=C/c1ccc2c(c1)OCO2)NCCCCCC(=O)NO` [PX105831, (E)-3-Benzo[1,3]dioxol-5-yl-N-(5-hydroxycarbamoylpentyl)acrylamide], the melting point is 191 to 193 °C. For the same compound, the pIC50 in the data set with HDAC (HeLa cell extract) (setting [4]) was 7.48. Also, the pIC50 at human HDAC1 is 7.19. For the same compound, the pIC50 in the data set with HeLa cells was 5.05. Besides, the pIC50 on human HDAC2 was 7.16.

Compound `O=C(/C=C/C=C/c1ccc(-c2ccccc2)cc1)NCCCCCC(=O)NO` [PX105848, (2E,4E)-5-Biphenyl-4-yl-penta-2,4-dienoic acid (5-hydroxycarbamoyl-pentyl)-amide] gave a melting point of 222 to 224 °C. Besides, the pIC50 with HDAC (HeLa cell extract) (setting [4]) is 7.66. Moreover, the pIC50 with HDAC (HeLa cell extract) (comparative tables, HeLa cell extract, read-out: HeLa IC50) is 7.66. For the same compound, the pIC50 on human HDAC1 is 7.60. The pIC50 with HeLa cells is 5.37. Besides, on human HDAC2, the pIC50 was 7.25.

Regarding `O=C(/C=C\C=C\c1ccc(Cl)cc1)NCCCCCC(=O)NO` [PX105849, (2Z,4E)-5-(4-Chlorophenyl)penta-2,4-dienoic acid (5-hydroxycarbamoylpentyl)-amide], the melting point was 158 to 160 °C. Moreover, the pIC50 in the data set on HDAC (HeLa cell extract) (setting [4]) is 7.54. At human HDAC1, the pIC50 was 7.30. In the data set with HeLa cells, the pIC50 was 5.28. For the same compound, on human HDAC2, the pIC50 was 7.20.

As to `O=C(/C=C/C=C/c1ccc(Cl)cc1)NCCCCCC(=O)NO` [PX105850, (2E,4E)-5-(4-Chlorophenyl)penta-2,4-dienoic acid (5-hydroxycarbamoylpentyl)-amide], the melting point lay within 164 to 168 °C. The pIC50 with HDAC (HeLa cell extract) (setting [4]) is 7.55. Moreover, the pIC50 at human HDAC1 was 7.60. In the data set on HeLa cells, the pIC50 was 5.20. The pIC50 on human HDAC2 is 7.12.

Take `O=C(/C=C/C=C/c1ccccc1)NCCCCCCCC(=O)NO` [PX105851]: the melting point is 160 to 162 °C. Besides, the pIC50 with HDAC (HeLa cell extract) (setting [4]) was 7.74. The pIC50 in the data set on HDAC (HeLa cell extract) (comparative tables, HeLa cell extract, no unit in cell, read-out: HeLa IC50) was 7.74. Also, the pIC50 on human HDAC1 was 7.92. In the data set on HeLa cells, the pIC50 is 5.38. The pIC50 at human HDAC2 was 7.30.

Consider `O=C(/C=C/c1c[nH]c2ccccc12)NCCCCCC(=O)NO` [PX116220, N-(5-Hydroxycarbamoyl-pentyl)-3-(1-N-indol-3-yl)-acrylamide], for which the melting point was in the range of 92 to 94 °C. Besides, in the data set with JURKAT human T-cell line (Homo sapiens), the pIC50 was 5.35. Besides, in the data set on HDAC (HeLa cell extract) (setting [4]), the pIC50 is 8.20. In addition, in data set [1] (setting [5]), the pIC50 is 5.62. For the same compound, the pIC50 in data set [2] (setting [3]) is 5.02. Moreover, the pIC50 with HeLa cells is 5.43.

Consider `O=C(CCCCCCC(=O)Nc1ccc2ccccc2c1)NO` [PX116223, Octanedioic acid hydroxyamide naphthalen-2-ylamide], for which the melting point lay within 142.5 to 144 °C. Moreover, the pIC50 with JURKAT human T-cell line (Homo sapiens) is 6.66. The pIC50 in the data set on HDAC (HeLa cell extract) (setting [4]) was more than 7.90. Also, the pIC50 in data set [1] (setting [5]) was 5.89. Moreover, in data set [2] (setting [3]), the pIC50 is 5.77. Besides, the pIC50 in the data set on HeLa cells is more than 6.51.

`O=C(/C=C/c1ccc2ccccc2c1)NCCCCCC(=O)NO` [PX116232, E-N-(5-Hydroxycarbamoylpentyl)-3-naphthalen-2-yl-acrylamide]: the pIC50 in the data set on JURKAT human T-cell line (Homo sapiens) was 5.14; in the data set with HDAC (HeLa cell extract) (setting [4]), 8.00; in data set [1] (setting [5]) it was 5.77; in data set [2] (setting [3]), 5.57; in the data set with HeLa cells it was 4.74.

On to `O=C(C=C1c2ccccc2-c2ccccc21)NCCCCCC(=O)NO` [PX117456, 6-(2-Fluoren-9-ylideneacetylamino)hexanoic acid hydroxyamide], for which the pIC50 in the data set on JURKAT human T-cell line (Homo sapiens) was 6.74; in the data set on HDAC (HeLa cell extract) (read-out: HDAC Inhibition (IC50 unless otherwise specified) HeLa) it was 8.52; in data set [1] (Homo sapiens, Keratinocyte), 6.60; in data set [2] (setting [3]) it was 6.13; in the data set on HeLa cells, 6.19.

As to `CC(/C=C/C(=O)NO)=C\[C@@H](C)C(=O)c1ccc(N(C)C)cc1` [TSA, trichostatin A, reference compound], the pIC50 was 7.38 in the data set with JURKAT human T-cell line (Homo sapiens); 6.70 in data set [1] (Homo sapiens, Keratinocyte); 6.42 in data set [2] (setting [3]); 6.46 in the data set on HeLa cells.
